These results are taken from publication PMC7916974 (Viruses, 2021).

Series [1] can be described thus: Cytotoxicity assay (MTT), MDCK cells. The series is classed as cell-based, canine. The following applies: dog; for CC50 at 72 h: MDCK cells, MTT, read-out: CC50 (50% cytotoxic concentration).
Series [2] concerns A/Virginia/ATCC2/2009 H1N1. As to the kind of experiment: microbe, parasite or virus in culture. The series is classed as cell-based. The following applies: Influenza A virus, MDCK, 72 h.
Another series has as its system A/California/2/2014 H3N2. The series is described as follows: microbe, parasite or virus in culture. The class given is cell-based. The following applies: Influenza A virus, H3N2, MDCK, 72 h.
The test system of series [3] is A/Weiss/43 H1N1. As to the kind of experiment: Infected mouse model: lung index, symptoms. The series is classed as in vivo, BALB/c mice. Particulars: for clinical symptoms of infected mice: intragastric once a day for six days.
For series [4], the system named is pro-inflammatory cytokines (TNF-α, IL-1β, IL-6, and IL-8). The series is described as follows: Cytokine mRNA in lungs of infected mice (qRT-PCR). The class given is in vivo, BALB/c mice. The following applies: two, four and six days post-infection. A general note: Quantitative PCR measures a nucleic acid by following its amplification.
Series [5] concerns A/Weiss/43 H1N1.
Series [6] relates to A/Weiss/43 H1N1. The series is described as follows: microbe, parasite or virus in culture. Particulars: Influenza A virus, H1N1, MDCK, 72 h, read-out: EC50 (50% effective concentration).
A short description of another series: in vitro. The class given is cell-based. Particulars: human.
Series [7] has as its system A/Weiss/43 H1N1-induced apoptosis in A549 cells. The class given is cell-based. Particulars: 24 h post-infection.
The test system of a further series is IAV. The series is described as follows: microbe, parasite or virus in culture. The following applies: Influenza A virus, ATCC2|H1N1|H3N2, MDCK, read-out: EC50 values (range over IAV strains). The series is classed as cell-based.
Series [8] relates to influenza A virus. The class given is cell-based.
In series [9] the test system is influenza A virus. The series is classed as cell-based. This is another data set of the same source.
Series [10] relates to A/Weiss/43 H1N1. The class given is cell-based, influenza A virus.
The subject of series [11] is A/Weiss/43 H1N1. The series is classed as cell-based, influenza A virus. The following applies: 6.25–100 µM.
Series [12] relates to A549 cells infected with A/Weiss/43 H1N1. The class given is cell-based. Particulars: 24 h.
The test system is the same in series [13]. The series is classed as cell-based. The following applies: 24 h post-infection.
In series [14] the test system is A/Weiss/43 H1N1. As to the kind of experiment: Viral NP mRNA in lungs of infected mice (qRT-PCR). The class given is in vivo, BALB/c mice. Particulars: two, four and six days post-infection.
Where [15] appears, read: 50 mg/kg/d intragastric, six days post infection.
[16] abbreviates: 100 mg/kg/d intragastric, six days post infection.

Read-outs that look alike come from different tables or passages of the source.

As to `CCOC(=O)C1=C[C@@H](OC(CC)CC)[C@H](NC(C)=O)[C@@H](N)C1` [Oseltamivir, reference compound], the CC50 at 72 h in series [1] was more than 800 µM. Further, the EC50 in series [2] came to 6.97 ± 0.38 µM; in the series with A/California/2/2014 H3N2 it was 9.47 ± 2.48 µM; in the series with A/Weiss/43 H1N1 [6] it was 0.57 ± 0.29 µM. The “Inhibition ratio of lung index” value in the series with A/Weiss/43 H1N1 [3] (setting [15]) is on record as 35.99%. In the series with A/Weiss/43 H1N1 [3] (setting [15]), the “Lung Index” value is 1.09 ± 0.12. Moreover, in the series on A/Weiss/43 H1N1 [3], the “clinical symptoms of infected mice” value is reported as “relieve these symptoms”. For the same molecule, in the series on A/Weiss/43 H1N1 [3] (six days post infection), the “lung indexes versus virus control group (in words)” value is “significantly lower than those in the virus control group”. Besides, the “expressions of pro-inflammatory cytokines in mouse lungs” value (“expressions” for short) in series [4] is on record as “inhibit the increased expressions of pro-inflammatory cytokines”. For the same molecule, the “SI (ratio of CC50 to EC50)” value with A/Weiss/43 H1N1 [5] is on record as more than 1403.51.
For the molecule `NC(=O)c1ncn([C@@H]2O[C@H](CO)[C@@H](O)[C@H]2O)n1` [Ribavirin], in series [1], the CC50 at 72 h is 608 ± 34 µM. The EC50 in series [2] came to 13.9 ± 1.06 µM; with A/California/2/2014 H3N2, 13 ± 3.74 µM; with A/Weiss/43 H1N1 [6], 22.2 ± 0.76 µM. The “clinical symptoms of infected mice” value in the series with A/Weiss/43 H1N1 [3] is recorded as “relieve these symptoms”. For the same molecule, the “expressions” value in [4] is recorded as “inhibit the increased expressions of pro-inflammatory cytokines”.
The viability is a read-out of living cells in per cent, often relative to untreated cells. The low end stands for more harm to the cells, the high end for less harm to the cells. On to `COC1=C(c2ccc(Cl)cc2)C(=O)OC1(C)COS(=O)(=O)Cc1ccccc1` (stereo not shown) [Compound 3D], for which the viability at 72 h, 800 µM (in [1]; in “in vitro”) was approximately 40% throughout. The values for the CC50 at 72 h (in series [1]; in “in vitro”) were 365 ± 1.58 µM and 309 ± 9.96 µM, respectively. For the same molecule, the EC50 in series [2] is 18.1 ± 2.6 µM; in the series with A/California/2/2014 H3N2 it was 24.1 ± 1.16 µM; with IAV, 12.3 to 24.1 µM; in the series with A/Weiss/43 H1N1 [6] it was 12.3 ± 0.53 µM. The apoptosis rate in series [7] (30 µM, infected A549 cells (virus control 32.85 ± 3.05%)) was 21.93 ± 0.97%; in series [7] (50 µM, infected A549 cells) it was 15.17 ± 2.87%; in series [7] (80 µM, infected A549 cells), 7.23 ± 1.30%. Further, the “Inhibition ratio of lung index” value in the series on A/Weiss/43 H1N1 [3] (25 mg/kg/d intragastric, six days post infection) was 11.35%; in the series on A/Weiss/43 H1N1 [3] (setting [15]), 28.47%; in the series on A/Weiss/43 H1N1 [3] (setting [16]) it was 33.21%. The “Lung Index” value in the series on A/Weiss/43 H1N1 [3] (25 mg/kg/d intragastric, six days post infection (virus control 1.70 ± 0.06)) is recorded as 1.51 ± 0.06; in the series with A/Weiss/43 H1N1 [3] (setting [15]) it was 1.22 ± 0.09; with A/Weiss/43 H1N1 [3] (setting [16]), 1.14 ± 0.05. Moreover, in the series with A/Weiss/43 H1N1 [3], the “clinical symptoms of infected mice” value is on record as “relieve these symptoms”. The “lung indexes versus virus control group (in words)” value in the series with A/Weiss/43 H1N1 [3] (six days post infection) is given as “significantly lower than those in the virus control group”. In addition, in the series on influenza A virus [8], the “inhibitory effect on viral replication, added before viral adsorption” value was “almost no inhibitory effects”. Moreover, the “inhibitory effect, added during viral inoculation” value in the series with influenza A virus [8] is on record as “slight inhibitory effect”. The “protective effect, added after viral adsorption” value in the series on influenza A virus [8] is on record as “significant protective effect”. Moreover, the “levels of NP mRNA, time-of-addition” value in the series with influenza A virus [9] is “significantly suppressed”. Besides, in the series on A/Weiss/43 H1N1 [10], the “virus titers of A549 cells” value is “significantly decreased”. Besides, in the series with A/Weiss/43 H1N1 [11], the “levels of NP mRNA in IAV-infected MDCK cells” value was “decrease in the levels of NP mRNA”. The “expression of influenza M2 protein” value in [12] (30, 50, 80 µM) is listed as “inhibited”. For the same molecule, in series [12] (A549 cells), the “IAV-induced upregulation of Bax/Bcl-2” value is on record as “reduced this upregulation”. In addition, the “mRNA expression of RIG-I, MAVS, TLR3, IRF3, IRF7” value in series [13] is “levels decreased”. Besides, the “mRNA expression of cytokines and chemokines (IL-1β, IL-6, IL-8, TNF-α)” value in [13] (dose-dependent) was “significantly decreased”. The “expression of viral NP mRNA in IAV infected lungs” value in the series with A/Weiss/43 H1N1 [14] is reported as “decreased the expression of viral NP mRNA in a dose-dependent manner”. Also, the “expressions” value in series [4] is listed as “inhibit the increased expressions of pro-inflammatory cytokines”. In addition, the “SI (ratio of CC50 to EC50)” value with A/Weiss/43 H1N1 [5] stood at 29.68. Also, the “antiviral activity against A/Weiss/43 H1N1 (in words)” value with A/Weiss/43 H1N1 [5] was “presented the antiviral activity”.
